Like-named read-outs stand apart in the source and are kept apart here.
How the values were obtained:
BRD4 BD2 protein = BRD4 BD2 protein (Homo sapiens (Human), UniProt O60885); test: Fluorescence polarization binding affinity (Ki) with BRD4 BD2 protein
BRD4 BD1 protein = BRD4 BD1 protein (Homo sapiens (Human), UniProt O60885); test: Fluorescence polarization binding affinity (Ki) with BRD4 BD1 protein
[1] = fluorescence polarization, Ki calculated from IC50

Compound	Ki (BRD4 BD2 protein; [1])	Ki (BRD4 BD1 protein; [1])	Ki (BRD4 BD2 protein)	Ki (BRD4 BD1 protein)
Cc1nnn2c1-c1ccc(-c3cnn(C)c3)cc1C(Nc1ccccc1C#N)CC2 (stereo not shown) [LC136, 2-((1-methyl-9-(1-methyl-1H-pyrazol-4-yl)-6,7-dihydro-5H-benzo[c][1,2,3]triazolo[1,5-a]azepin-7-yl)amino)benzonitrile]	8.83 nM	49.7 nM		
Cc1nnn2c1-c1ccc(C3=CCNCC3)cc1C(Nc1cccc(Cl)c1F)CC2 (stereo not shown) [LC190, N-(3-chloro-2-fluorophenyl)-1-methyl-9-(1,2,3,6-tetrahydropyridin-4-yl)-6,7-dihydro-5H-benzo[c][1,2,3]triazolo[1,5-a]azepin-7-amine 2,2,2-trifluoroacetate]	60 nM	592 nM		
Cc1nnn2c1-c1ccc(C3=CCNC3)cc1C(Nc1cccc(Cl)c1)CC2 (stereo not shown) [BJ179, N-(3-chlorophenyl)-9-(2,5-dihydro-1H-pyrrol-3-yl)-1-methyl-6,7-dihydro-5H-benzo[c][1,2,3]triazolo[1,5-a]azepin-7-amine 2,2,2-trifluoroacetate]	25.9 nM	436 nM		
COc1ccccc1NC1CCn2nnc(C)c2-c2ccc(C3=CCNCC3)cc21 (stereo not shown) [LC158, N-(2-methoxyphenyl)-1-methyl-9-(1,2,3,6-tetrahydropyridin-4-yl)-6,7-dihydro-5H-benzo[c][1,2,3]triazolo[1,5-a]azepin-7-amine 2,2,2-trifluoroacetate]	41.6 nM	859 nM		
CCn1cc(-c2ccc3c(c2)[C@H](Nc2ccc(Cl)cc2)CCn2nnc(C)c2-3)cn1 [RE136, (R)—N-(4-chlorophenyl)-9-(1-ethyl-1H-pyrazol-4-yl)-1-methyl-6,7-dihydro-5H-benzo[c][1,2,3]triazolo[1,5-a]azepin-7-amine]	< 1 nM	2.66 ± 0.37 nM		
Cc1nnn2c1-c1ccc(C3=CCN(C)CC3)cc1C(Oc1cccc(Cl)c1)CC2 (stereo not shown) [BH43, 7-(3-chlorophenoxy)-1-methyl-9-(1-methyl-1,2,3,6-tetrahydropyridin-4-yl)-6,7-dihydro-5H-benzo[c][1,2,3]triazolo[1,5-a]azepine 2,2,2-trifluoroacetate]	316 nM	> 100000 nM		
CCC(C)N1CC=C(c2ccc3c(c2)C(Nc2cccc(Cl)c2)CCn2nnc(C)c2-3)CC1 (stereo not shown) [BH87, 9-(1-(sec-butyl)-1,2,3,6-tetrahydropyridin-4-yl)-N-(3-chlorophenyl)-1-methyl-6,7-dihydro-5H-benzo[c][1,2,3]triazolo[1,5-a]azepin-7-amine 2,2,2-trifluoroacetate]	44.5 nM	1100 nM		
Cc1nnn2c1-c1ccc(C3=CCNCC3)cc1C(Nc1ccc(CC#N)cc1)CC2 (stereo not shown) [RC73, 2-(4-((1-methyl-9-(1,2,3,6-tetrahydropyridin-4-yl)-6,7-dihydro-5H-benzo[c][1,2,3]triazolo[1,5-a]azepin-7-yl)amino)phenyl)acetonitrile 2,2,2-trifluoroacetate]	139 nM	2370 nM		
N-(4-chlorophenyl)-9-(3,6-dihydro-2H-pyran-4-yl)-1-methyl-6,7-dihydro-5H-benzo[c][1,2,3]triazolo[1,5-a]azepin-7-amine [LD31]			17.1 nM	39.1 nM
CC(=O)N1CC=C(c2ccc3c(c2)C(Nc2cccc(Cl)c2F)CCn2nnc(C)c2-3)CC1 (stereo not shown) [RD180, 1-(4-(7-((3-chloro-2-fluoro-phenyl)amino)-1-methyl-6,7-dihydro-5H-benzo[c][1,2,3]triazolo[1,5-a]azepin-9-yl)-3,6-dihydropyridin-1 (2H)-yl)ethan-1-one]	12.1 nM	52 nM		
Cc1nnn2c1-c1ccc(C3=CCN(C(C)C)CC3)cc1C(Nc1cc(Cl)ccc1F)CC2 (stereo not shown) [BI68, N-(5-chloro-2-fluorophenyl)-9-(1-isopropyl-1,2,3,6-tetrahydropyridin-4-yl)-1-methyl-6,7-dihydro-5H-benzo[c][1,2,3]triazolo[1,5-a]azepin-7-amine 2,2,2-trifluoroacetate]	45.1 nM	1110 nM		
Cc1nnn2c1-c1ccc(C3=CCNCC3)cc1C(Nc1ccccc1CC#N)CC2 (stereo not shown) [RC82, 2-(2-((1-methyl-9-(1,2,3,6-tetrahydropyridin-4-yl)-6,7-dihydro-5H-benzo[c][1,2,3]triazolo[1,5-a]azepin-7-yl)amino)phenyl) acetonitrile 2,2,2-trifluoroacetate]	1520 nM	2370 nM		
Cc1nnn2c1-c1ccc(-c3cnn(C)c3)cc1C(Nc1ccccc1CCN(C)C)CC2 (stereo not shown) [LC99, N-(2-(2-(dimethylamino)ethyl)phenyl)-1-methyl-9-(1-methyl-1H-pyrazol-4-yl)-6,7-dihydro-5H-benzo[c][1,2,3]triazolo[1,5-a]azepin-7-amine]	12.9 nM	38.4 nM		
Cc1nnn2c1-c1ccc(C3=CCNCC3)cc1C(Nc1cc(F)cc(Cl)c1)CC2 (stereo not shown) [BH06, N-(3-chloro-5-fluorophenyl)-1-methyl-9-(1,2,3,6-tetrahydropyridin-4-yl)-6,7-dihydro-5H-benzo[c][1,2,3]triazolo[1,5-a]azepin-7-amine 2,2,2-trifluoroacetate]	35.7 nM	596 nM		
CCN1CC=C(c2ccc3c(c2)C(Nc2cccc(C#N)c2)CCn2nnc(C)c2-3)CC1 (stereo not shown) [BI37, 3-((9-(1-ethyl-1,2,3,6-tetrahydropyridin-4-yl)-1-methyl-6,7-dihydro-5H-benzo[c][1,2,3]triazolo[1,5-a]azepin-7-yl)amino)benzonitrile 2,2,2-trifluoroacetate]	196 nM	2570 nM		
COc1cccc(NC2CCn3nnc(C)c3-c3ccc(C4=CCN(C)CC4)cc32)c1 (stereo not shown) [BH23, N-(3-methoxyphenyl)-1-methyl-9-(1-methyl-1,2,3,6-tetrahydropyridin-4-yl)-6,7-dihydro-5H-benzo[c][1,2,3]triazolo[1,5-a]azepin-7-amine 2,2,2-trifluoroacetate]	75.3 nM	751 nM		
CCN1CCC(c2ccc3c(c2)C(Nc2cccc(Cl)c2)CCn2nnc(C)c2-3)CC1 (stereo not shown) [RD142, N-(3-chlorophenyl)-9-(1-ethylpiperidin-4-yl)-1-methyl-6,7-dihydro-5H-benzo[c][1,2,3]triazolo[1,5-a]azepin-7-amine 2,2,2-trifluoroacetate]	193 nM	4410 nM		
Cc1nnn2c1-c1ccc(C3=CCN(C(C)C)CC3)cc1C(Nc1cccc(Cl)c1F)CC2 (stereo not shown) [RE29, N-(3-chloro-2-fluorophenyl)-9-(1-isopropyl-1,2,3,6-tetrahydropyridin-4-yl)-1-methyl-6,7-dihydro-5H-benzo[c][1,2,3]triazolo[1,5-a]azepin-7-amine 2,2,2-trifluoroacetate]	65.8 nM	1550 nM		
CNC(=O)Cc1ccccc1NC1CCn2nnc(C)c2-c2ccc(C3=CCNCC3)cc21 (stereo not shown) [LC132]	55.9 nM	724 nM		
Cc1nnn2c1-c1ccc(-c3cnn(C)c3)cc1C(NC1CCCCC1)CC2 (stereo not shown) [BH46, N-cyclohexyl-1-methyl-9-(1-methyl-1H-pyrazol-4-yl)-6,7-dihydro-5H-benzo[c][1,2,3]triazolo[1,5-a]azepin-7-amine 2,2,2-trifluoroacetate]	907 nM	689 nM		
Cc1nnn2c1-c1ccc(C3CCN(C)CC3)cc1C(Nc1ccc(Cl)cc1)CC2 (stereo not shown) [BF178, N-(4-chlorophenyl)-1-methyl-9-(1-methylpiperidin-4-yl)-6,7-dihydro-5H-benzo[c][1,2,3]triazolo[1,5-a]azepin-7-amine]	> 20000 nM	> 20000 nM		
CCN1CC=C(c2ccc3c(c2)C(Nc2ccc(F)c(Cl)c2)CCn2nnc(C)c2-3)CC1 (stereo not shown) [RD121, N-(3-chloro-4-fluorophenyl)-9-(1-ethyl-1,2,3,6-tetrahydropyridin-4-yl)-1-methyl-6,7-dihydro-5H-benzo[c][1,2,3]triazolo[1,5-a]azepin-7-amine 2,2,2-trifluoroacetate]			31.8 nM	788 nM
Cc1nnn2c1-c1ccc(-c3cnn(C)c3)cc1[C@H](Nc1ccc(Cl)cc1)CC2 [RE127, (R)—N-(4-chlorophenyl)-1-methyl-9-(1-methyl-1H-pyrazo1-4-yl)-6,7-dihydro-5H-benzo[c][1,2,3]triazolo[1,5-a]azepin-7-amine]	< 1 nM	4.15 ± 0.21 nM		
Cc1nnn2c1-c1ccc(C3=CCNCC3)cc1C(Nc1ccccc1Cl)CC2 (stereo not shown) [LC84, N-(2-chlorophenyl)-1-methyl-9-(1,2,3,6-tetrahydropyridin-4-yl)-6,7-dihydro-5H-benzo[c][1,2,3]triazolo[1,5-a]azepin-7-amine 2,2,2-trifluoroacetate]	37.8 nM	845 nM		
Cc1nnn2c1-c1ccc(C3=CCNCC3)cc1C(Nc1ccccc1O)CC2 (stereo not shown) [LC127, 2-((1-methyl-9-(1,2,3,6-tetrahydropyridin-4-yl)-6,7-dihydro-5H-benzo[c][1,2,3]triazolo[1,5-a]azepin-7-yl)amino)phenol 2,2,2-trifluoroacetate]	41.5 nM	793 nM		
Cc1nnn2c1-c1ccc(C3=CCNCC3)cc1C(Nc1ccc3cc[nH]c3c1)CC2 (stereo not shown) [WA83, N-(1H-indo1-6-yl)-1-methyl-9-(1,2,3,6-tetrahydropyridin-4-yl)-6,7-dihydro-5H-benzo[c][1,2,3]triazolo[1,5-a]azepin-7-amine 2,2,2-trifluoroacetate]	88.6 nM	431 nM		
CCC(=O)N1CC=C(c2ccc3c(c2)C(Nc2cccc(Cl)c2)CCn2nnc(C)c2-3)CC1 (stereo not shown) [BH86, 1-(4-(7-((3-chlorophenyl)amino)-1-methyl-6,7-dihydro-5H-benzo[c][1,2,3]triazolo[1,5-a]azepin-9-yl)-3,6-dihydropyridin-1(2H)-yl)propan-1-one]	6.43 nM	9.51 nM		
Cc1nnn2c1-c1ccc(C3=CCN(C4CCC4)CC3)cc1C(Nc1cccc(C#N)c1)CC2 (stereo not shown) [BI36, 3-(((9-(1-cyclobutyl-1,2,3,6-tetrahydropyridin-4-yl))-1-methyl-6,7-dihydro-5H-benzo[c][1,2,3]triazolo[1,5-a]azepin-7-yl)amino)benzonitrile 2,2,2-trifluoroacetate]	89.8 nM	1850 nM		
Cc1nnn2c1-c1ccc(C3=CCN(C(C)C)CC3)cc1C(Nc1cccc(S(C)(=O)=O)c1)CC2 (stereo not shown) [BI60, 9-(1-isopropyl-1,2,3,6-tetrahydropyridin-4-yl)-1-methyl-N-(3-(methylsulfonyl)phenyl)-6,7-dihydro-5H-benzo[c][1,2,3]triazolo[1,5-a]azepin-7-amine 2,2,2-trifluoroacetate]	307 nM	4740 nM		
